The structures appear in SMILES notation. Structures can show the parent of a compound that is named as a salt. Some results are limits rather than exact numbers.

Sequence of human GlyT1c transporter (P48067 whole entry): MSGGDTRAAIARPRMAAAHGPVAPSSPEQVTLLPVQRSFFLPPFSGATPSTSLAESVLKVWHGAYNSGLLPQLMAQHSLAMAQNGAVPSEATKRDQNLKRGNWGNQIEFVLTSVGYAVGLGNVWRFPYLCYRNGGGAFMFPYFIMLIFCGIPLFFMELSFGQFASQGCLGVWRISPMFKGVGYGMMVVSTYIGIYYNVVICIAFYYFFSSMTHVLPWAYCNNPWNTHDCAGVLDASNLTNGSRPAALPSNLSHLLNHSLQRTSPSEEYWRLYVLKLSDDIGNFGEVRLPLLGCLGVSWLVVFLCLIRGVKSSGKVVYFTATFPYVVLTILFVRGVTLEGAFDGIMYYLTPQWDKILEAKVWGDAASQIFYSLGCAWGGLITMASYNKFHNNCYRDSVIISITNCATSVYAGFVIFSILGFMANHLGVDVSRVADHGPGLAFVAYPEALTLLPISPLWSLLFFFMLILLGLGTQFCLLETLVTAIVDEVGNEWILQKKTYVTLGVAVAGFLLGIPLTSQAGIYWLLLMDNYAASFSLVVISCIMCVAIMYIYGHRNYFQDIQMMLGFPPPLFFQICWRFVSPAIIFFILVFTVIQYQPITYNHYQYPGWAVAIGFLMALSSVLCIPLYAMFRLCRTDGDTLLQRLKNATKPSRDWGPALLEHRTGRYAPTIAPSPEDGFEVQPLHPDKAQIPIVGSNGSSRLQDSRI

For the test, the target named is human GlyT1c transporter (Homo sapiens (Human), UniProt P48067). The test can be described thus: Radioligand binding assay using recombinant CHO cell membranes expressing human GlyT1. The note with it: human GlyT1c-expressing CHO cell membranes; read-out: radioligand binding Kiapp. The source says:
2. Radioligand binding assays using recombinant CHO cell membranes expressing human GlyT1: […]
For the molecule `CC(C)NC1CCc2ccc(OCCNS(=O)(=O)CC3CC3)cc2C1Cc1cccc(C#N)c1` (centres unmarked) [Example 156, N-(2-{[8-(3-Cyanobenzyl)-7-(propan-2-ylamino)-5,6,7,8-tetrahydronaphthalen-2-yl]oxy}ethyl)-1-cyclopropylmethanesulfonamide hydrochloride], the Ki was no more than 1000 nM.

As to `CNC1CCc2ccc(OCCNS(=O)(=O)CC3CC3)cc2C1Cc1cc(F)cc(Cl)c1` (centres unmarked) [Example 158, N-(2-{[8-(3-Chloro-5-fluorobenzyl)-7-(methylamino)-5,6,7,8-tetrahydronaphthalen-2-yl]oxy}ethyl)-1-cyclopropylmethanesulfonamide hydrochloride], the Ki is no more than 10 nM.

Consider `O=S(=O)(CC1CC1)NCCOc1ccc2c(c1)C(Cc1cc(F)cc(Cl)c1)C(N1CCC1)CC2` (centres unmarked) [Example 159, N-(2-{[7-(Azetidin-1-yl)-8-(3-chloro-5-fluorobenzyl)-5,6,7,8-tetrahydronaphthalen-2-yl]oxy}ethyl)-1-cyclopropylmethanesulfonamide (2E)-but-2-enedioate], for which the Ki was no more than 100 nM.

As for `Cn1cnc(S(=O)(=O)NCCOc2ccc3c(c2)C(Cc2cc(F)cc(Cl)c2)C(N2CCC2)CC3)c1` (centres unmarked) [Example 160, N-(2-{[7-(Azetidin-1-yl)-8-(3-chloro-5-fluorobenzyl)-5,6,7,8-tetrahydronaphthalen-2-yl]oxy}ethyl)-1-methyl-1H-imidazole-4-sulfonamide(2E)-but-2-enedioate], the Ki is no more than 10 nM.

Regarding `CNC1CCc2ccc(OCCNS(=O)(=O)CC3CC3)cc2C1Cc1ccc(F)cc1` (centres unmarked) [Example 161, 1-Cyclopropyl-N-(2-{[8-(4-fluorobenzyl)-7-(methylamino)-5,6,7,8-tetrahydronaphthalen-2-yl]oxy}ethyl)methanesulfonamide], the Ki was no more than 10 nM.

`Cc1cccc(CC2c3cc(OCCNS(=O)(=O)c4cn(C)cn4)ccc3CCC2N2CCCC2)c1` (centres unmarked) [Example 163, 1-Methyl-N-(2-{[8-(3-methylbenzyl)-7-(pyrrolidin-1-yl)-5,6,7,8-tetrahydronaphthalen-2-yl]oxy}ethyl)-1H-imidazole-4-sulfonamide]: the Ki was no more than 10 nM.

As for `COc1cccc(CC2c3cc(OCCNS(=O)(=O)c4cn(C)cn4)ccc3CCC2N2CCCC2)c1` (centres unmarked) [Example 164, N-(2-{[8-(3-Methoxybenzyl)-7-(pyrrolidin-1-yl)-5,6,7,8-tetrahydronaphthalen-2-yl]oxy}ethyl)-1-methyl-1H-imidazole-4-sulfonamide hydrochloride], the Ki was no more than 10 nM.

With `Cn1cnc(S(=O)(=O)NCCOc2ccc3c(c2)C(Cc2cccc(C(F)(F)F)c2)C(N)CC3)c1` (centres unmarked) [Example 165, 1-Methyl-1H-imidazole-4-sulfonic acid {2-[7-amino-8-(3-trifluoromethyl-benzyl)-5,6,7,8-tetrahydro-naphthalen-2-yloxy]-ethyl}-amide hydrochloride], the Ki was no more than 10 nM.

Consider `Cn1cc(S(=O)(=O)NCc2ccc3c(c2)C(Cc2ccccc2)C(N)CC3)cn1` (centres unmarked) [Example 172, N-[(7-Amino-8-benzyl-5,6,7,8-tetrahydronaphthalen-2-yl)methyl]-1-methyl-1H-pyrazole-4-sulfonamide hydrochloride], for which the Ki is no more than 10 nM.

Turning to `Cn1cnc(S(=O)(=O)NCc2ccc3c(c2)C(Cc2ccccc2)C(N)CC3)c1` (centres unmarked) [Example 173, N-[(7-Amino-8-benzyl-5,6,7,8-tetrahydronaphthalen-2-yl)methyl]-1-methyl-1H-imidazole-4-sulfonamide hydrochloride], the Ki was no more than 10 nM.

In the case of `NC1CCc2ccc(CNS(=O)(=O)C3CCC3)cc2C1Cc1ccc(F)cc1` (centres unmarked) [Example 174, N-{[7-Amino-8-(4-fluorobenzyl)-5,6,7,8-tetrahydronaphthalen-2-yl]methyl}cyclobutanesulfonamide hydrochloride], the Ki is no more than 1000 nM.

Regarding `Cn1cnc(S(=O)(=O)NCc2ccc3c(c2)C(Cc2ccc(F)cc2)C(N)CC3)c1` (centres unmarked) [Example 176, N-{[7-Amino-8-(4-fluorobenzyl)-5,6,7,8-tetrahydronaphthalen-2-yl]methyl}-1-methyl-1H-imidazole-4-sulfonamide hydrochloride], the Ki was no more than 100 nM.

`Cn1cnc(S(=O)(=O)NCc2ccc3c(c2)C(Cc2cccc(F)c2)C(N)CC3)c1` (centres unmarked) [Example 177, N-{[7-Amino-8-(3-fluorobenzyl)-5,6,7,8-tetrahydronaphthalen-2-yl]methyl}-1-methyl-1H-imidazole-4-sulfonamide hydrochloride]: the Ki is no more than 10 nM.

With `Cn1cc(S(=O)(=O)NCc2ccc3c(c2)C(Cc2cccc(F)c2)C(N)CC3)cn1` (centres unmarked) [Example 178, N-{[7-Amino-8-(3-fluorobenzyl)-5,6,7,8-tetrahydronaphthalen-2-yl]methyl}-1-methyl-1H-pyrazole-4-sulfonamide hydrochloride], the Ki is no more than 10 nM.

With `Cc1cccc(S(=O)(=O)NCc2ccc3c(c2)C(Cc2ccccc2)C(N)CC3)c1` (centres unmarked) [Example 179, N-{[7-Amino-8-benzyl-5,6,7,8-tetrahydronaphthalen-2-yl]methyl}-3-methylbenzenesulfonamide hydrochloride], the Ki was no more than 1000 nM.

Regarding `Cn1ccc(S(=O)(=O)NCc2ccc3c(c2)C(Cc2ccccc2)C(N)CC3)c1` (centres unmarked) [Example 180, N-{[7-Amino-8-benzyl-5,6,7,8-tetrahydronaphthalen-2-yl]methyl}-1-methyl-1H-pyrrole-3-sulfonamide hydrochloride], the Ki is no more than 10 nM.

`NC1CCc2ccc(CNS(=O)(=O)c3cccnc3)cc2C1Cc1ccccc1` (centres unmarked) [Example 181, N-{[7-Amino-8-benzyl-5,6,7,8-tetrahydronaphthalen-2-yl]methyl}pyridine-3-sulfonamide dihydrochloride]: the Ki was no more than 100 nM.

Turning to `Cn1cc(S(=O)(=O)NCc2ccc3c(c2)C(Cc2ccccc2)C(N)CC3)c(C(F)(F)F)n1` (centres unmarked) [Example 182, N-{[7-Amino-8-benzyl-5,6,7,8-tetrahydronaphthalen-2-yl]methyl}-1-methyl-3-(trifluoromethyl)-1H-pyrazole-4-sulfonamide hydrochloride], the Ki is no more than 100 nM.

For `Cn1ccc(S(=O)(=O)NCc2ccc3c(c2)C(Cc2ccccc2)C(N)CC3)n1` (centres unmarked) [Example 183, N-{[7-Amino-8-benzyl-5,6,7,8-tetrahydronaphthalen-2-yl]methyl}-1-methyl-1H-pyrazole-3-sulfonamide hydrochloride], the Ki is no more than 1000 nM.

With `NC1CCc2ccc(CNS(=O)(=O)C3CCC3)cc2C1Cc1cccc(F)c1` (centres unmarked) [Example 184, N-{[7-Amino-8-(3-fluorobenzyl)-5,6,7,8-tetrahydronaphthalen-2-yl]methyl}cyclobutanesulfonamide hydrochloride], the Ki was no more than 100 nM.

For the molecule `NC1CCc2ccc(CNS(=O)(=O)CC3CC3)cc2C1Cc1ccc(F)c(F)c1` (centres unmarked) [Example 185, N-{[7-Amino-8-(3,4-difluorobenzyl)-5,6,7,8-tetrahydronaphthalen-2-yl]methyl}-1-cyclopropylmethanesulfonamide hydrochloride], the Ki was no more than 1000 nM.

`NC1CCc2ccc(CNS(=O)(=O)C3CCC3)cc2C1Cc1ccc(F)c(F)c1` (centres unmarked) [Example 186, N-{[7-Amino-8-(3,4-difluorobenzyl)-5,6,7,8-tetrahydronaphthalen-2-yl]methyl}cyclobutanesulfonamide hydrochloride]: the Ki is no more than 1000 nM.

In the case of `CNC1CCc2ccc(CNS(=O)(=O)C3CCC3)cc2C1Cc1ccccc1` (centres unmarked) [Example 188, N-{[8-Benzyl-7-(methylamino)-5,6,7,8-tetrahydronaphthalen-2-yl]methyl}cyclobutanesulfonamide hydrochloride], the Ki was no more than 100 nM.

Take `CNC1CCc2ccc(CNS(=O)(=O)c3cccc(C)c3)cc2C1Cc1ccccc1` (centres unmarked) [Example 189, N-{[8-Benzyl-7-(methylamino)-5,6,7,8-tetrahydronaphthalen-2-yl]methyl}-3-methylbenzenesulfonamide hydrochloride]: the Ki was no more than 10000 nM.

As to `CNC1CCc2ccc(CNS(=O)(=O)c3ccn(C)c3)cc2C1Cc1ccccc1` (centres unmarked) [Example 190, N-{[8-Benzyl-7-(methylamino)-5,6,7,8-tetrahydronaphthalen-2-yl]methyl}-1-methyl-1H-pyrrole-3-sulfonamide hydrochloride], the Ki is no more than 10 nM.

For `CNC1CCc2ccc(CNS(=O)(=O)c3ccn(C)n3)cc2C1Cc1ccccc1` (centres unmarked) [Example 191, N-{[8-Benzyl-7-(methylamino)-5,6,7,8-tetrahydronaphthalen-2-yl]methyl}-1-methyl-1H-pyrazole-3-sulfonamide hydrochloride], the Ki is no more than 1000 nM.

As to `CC(=O)NC1CCc2ccc(CNS(=O)(=O)c3cn(C)cn3)cc2C1Cc1ccc(F)cc1` (centres unmarked) [Example 197], the Ki was no more than 10000 nM.

On to `CCNC1CCc2ccc(CNS(=O)(=O)c3cn(C)cn3)cc2C1Cc1ccc(F)cc1` (centres unmarked) [Example 199, 1-Methyl-1H-imidazole-4-sulfonic acid [7-ethylamino-8-(4-fluoro-benzyl)-5,6,7,8-tetrahydro-naphthalen-2-ylmethyl]-amide hydrochloride], for which the Ki is no more than 100 nM.

`CCNC1CCc2ccc(CNS(=O)(=O)c3cnn(C)c3)cc2C1Cc1cccc(F)c1` (centres unmarked) [Example 200, 1-Methyl-1H-pyrazole-4-sulfonic acid [7-ethylamino-8-(3-fluoro-benzyl)-5,6,7,8-tetrahydronaphthalen-2-ylmethyl]-amide hydrochloride]: the Ki was no more than 100 nM.

As to `CCCS(=O)(=O)NCCCc1ccc2c(c1)C(Cc1ccc(Cl)cc1)C(N)CC2` (centres unmarked) [Example 201, N-{3-[7-Amino-8-(4-chlorobenzyl)-5,6,7,8-tetrahydronaphthalen-2-yl]propyl}propane-1-sulfonamide hydrochloride], the Ki is no more than 100 nM.

As to `NC1CCc2ccc(CCCNS(=O)(=O)CC3CC3)cc2C1Cc1ccc(Cl)cc1` (centres unmarked) [Example 202, N-{3-[7-Amino-8-(4-chlorobenzyl)-5,6,7,8-tetrahydronaphthalen-2-yl]propyl}-1-cyclopropylmethanesulfonamide hydrochloride], the Ki was no more than 100 nM.

As for `CCCS(=O)(=O)NCCCc1ccc2c(c1)C(Cc1ccc(Cl)c(Cl)c1)C(N)CC2` (centres unmarked) [Example 203, N-{3-[7-Amino-8-(3,4-dichlorobenzyl)-5,6,7,8-tetrahydronaphthalen-2-yl]propyl}propane-1-sulfonamide hydrochloride], the Ki is no more than 10 nM.

Values taken from patent publication US9067871B2, “Aminotetraline derivatives, pharmaceutical compositions containing them, and their use in therapy” (ABBVIE DEUTSCHLAND GMBH & CO KG, priority 2009, dated 2015).
